Test results as given in ChEMBL document CHEMBL3244393, “6-aminopyrazolo[4,3-c]pyridin-4(5H)-one, a novel analogue of guanine” (J Med Chem, 1977).
Calls of active or inactive are those of the source.

Assays:
Human respirovirus 3 = experiment: Antiviral activity against Parainfluenza virus type 3 infected in human KB cells assessed as inhibition of virus-induced cytopathic effect; format: functional, organism-based
Human alphaherpesvirus 1 = experiment: Antiviral activity against Herpes virus type 1 infected in human KB cells assessed as inhibition of virus-induced cytopathic effect; format: functional, organism-based
KB = experiment: Antiviral activity against Rhinovirus type 13 infected in human KB cells assessed as inhibition of virus-induced cytopathic effect; format: functional, cell-based; details: Human rhinovirus A13

Measured: Activity

Nc1cc2[nH]ncc2c(=O)[nH]1
inactive: Human respirovirus 3 | Human alphaherpesvirus 1 | KB
